Test results as given in ChEMBL document CHEMBL3988442, “University of Dundee, Small-Polar-MMV Screening Library” (2021).
Values joined by “and” are separate entries in the source; they are usually repeats but may differ in a detail not shown here. Equal values may be shown once.

What was measured:
Plasmodium falciparum = assay: Calibr Malaria Delayed Death Assay SOP; format: functional, organism-based; details: for IC50: Plasmodium falciparum
[1] = target: T1, Coenzyme A biosynthesis bifunctional protein CoaBC (Mycobacterium tuberculosis (strain ATCC 25618 / H37Rv), UniProt P9WNZ1); assay: Biomol Green assay for MtCoaBC inhibitor, OD650 read; format: functional
T1 sequence (P9WNZ1 whole entry): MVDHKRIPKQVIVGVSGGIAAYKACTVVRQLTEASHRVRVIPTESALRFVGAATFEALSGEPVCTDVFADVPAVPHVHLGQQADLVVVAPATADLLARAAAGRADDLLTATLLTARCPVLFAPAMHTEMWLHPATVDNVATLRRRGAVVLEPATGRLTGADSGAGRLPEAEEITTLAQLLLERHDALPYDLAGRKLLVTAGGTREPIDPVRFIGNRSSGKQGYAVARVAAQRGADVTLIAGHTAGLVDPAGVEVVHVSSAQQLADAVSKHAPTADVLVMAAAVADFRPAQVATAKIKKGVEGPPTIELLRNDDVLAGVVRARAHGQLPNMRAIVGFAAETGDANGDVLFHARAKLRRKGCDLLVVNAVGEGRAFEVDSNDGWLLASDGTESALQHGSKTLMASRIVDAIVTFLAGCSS

Histidine--tRNA ligase = target: T2, Histidine--tRNA ligase (Leishmania infantum, UniProt A4I591); assay: Leishmania infantum Histidine tRNA synthetase (LdHisRS); format: functional
T2 sequence (A4I591 whole entry): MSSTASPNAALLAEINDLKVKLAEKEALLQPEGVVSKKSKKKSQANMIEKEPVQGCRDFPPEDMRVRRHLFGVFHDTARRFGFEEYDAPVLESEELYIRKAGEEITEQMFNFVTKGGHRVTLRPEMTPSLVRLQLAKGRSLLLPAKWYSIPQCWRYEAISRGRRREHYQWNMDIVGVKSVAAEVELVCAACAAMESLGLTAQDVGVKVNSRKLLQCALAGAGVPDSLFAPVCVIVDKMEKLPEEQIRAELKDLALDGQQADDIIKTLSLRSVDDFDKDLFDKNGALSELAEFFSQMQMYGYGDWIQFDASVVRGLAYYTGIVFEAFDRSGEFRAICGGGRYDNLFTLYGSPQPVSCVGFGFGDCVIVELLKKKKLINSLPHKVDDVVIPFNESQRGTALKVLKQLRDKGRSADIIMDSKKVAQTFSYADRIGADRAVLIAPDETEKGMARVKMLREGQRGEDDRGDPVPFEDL

Tryptophan--tRNA ligase = Tryptophan--tRNA ligase (Mycobacterium tuberculosis (strain ATCC 25618 / H37Rv), UniProt P9WFT3); assay: Biochemical assay for Mt-TrpRS; format: functional
Sequence of Tryptophan--tRNA ligase (P9WFT3 whole entry): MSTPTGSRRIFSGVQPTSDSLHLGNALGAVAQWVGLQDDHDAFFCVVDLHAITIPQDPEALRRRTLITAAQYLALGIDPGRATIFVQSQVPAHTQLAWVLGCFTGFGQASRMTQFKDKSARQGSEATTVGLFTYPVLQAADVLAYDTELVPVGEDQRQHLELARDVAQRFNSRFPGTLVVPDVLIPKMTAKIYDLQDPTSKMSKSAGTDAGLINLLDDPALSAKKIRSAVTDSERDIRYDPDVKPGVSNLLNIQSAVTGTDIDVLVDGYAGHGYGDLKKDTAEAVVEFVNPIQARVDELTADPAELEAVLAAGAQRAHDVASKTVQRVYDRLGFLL

[2] = In vitro enzyme assay to detect hydrolysis of chlorophenol red-beta-D-[…] directly proportional to the number of Toxoplasma stably expressing beta-galactosidase; format: functional, organism-based, Toxoplasma gondii; details: for IC50: Toxoplasma gondii
ClpP1P2 = ClpP1P2 (Mycobacterium tuberculosis (strain ATCC 25618 / H37Rv), UniProt P9WPC3+P9WPC5); assay: in vitro assay to detect presence of AMC directly proportional to the activity of ClpP1P2. GHDDI collaboration.; format: functional
Sequence of ClpP1P2 (P9WPC5 whole entry): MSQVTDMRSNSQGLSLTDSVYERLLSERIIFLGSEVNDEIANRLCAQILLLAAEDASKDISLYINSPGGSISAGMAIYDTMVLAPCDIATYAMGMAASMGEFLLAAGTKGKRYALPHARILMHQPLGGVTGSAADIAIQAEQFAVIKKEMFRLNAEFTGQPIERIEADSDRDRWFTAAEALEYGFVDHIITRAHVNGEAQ
Sequence of ClpP1P2 (P9WPC3 whole entry): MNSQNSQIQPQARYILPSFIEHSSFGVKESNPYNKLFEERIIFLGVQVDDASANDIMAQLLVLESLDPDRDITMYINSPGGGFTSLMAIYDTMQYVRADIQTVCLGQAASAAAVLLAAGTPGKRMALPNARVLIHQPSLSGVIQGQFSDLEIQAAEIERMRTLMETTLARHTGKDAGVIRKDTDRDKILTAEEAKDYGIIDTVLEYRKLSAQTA

[3] = microbe, parasite or virus in culture; details: Mycobacterium tuberculosis, 96 h, read-out: pIC50 (converted)
[4] = microbe, parasite or virus in culture; details: Mycobacterium tuberculosis, 72 h, read-out: pIC50 (converted)

Compound | IC50 [1] | other results
COc1cccc(CNc2cc(C)nc(-c3ccncc3)n2)c1OC | > 30.2 µM | pIC50 (Plasmodium falciparum): 6.336; IC50 (Plasmodium falciparum): 0.465 µM; IC50 (Histidine--tRNA ligase): 91.8 µM and > 100 µM
c1ccc(Cn2cc(CNCC3CNc4ccnn4C3)cn2)cc1 (configuration not stated) | > 30.2 µM | IC50 (Tryptophan--tRNA ligase): > 195 µM
CS(=O)(=O)N1CCC2(CC1)CN(CCn1cccn1)C(=O)CO2 | > 50.1 µM | IC50 (Histidine--tRNA ligase): > 100 µM
N#Cc1ccsc1N1CCC(Sc2ccncc2)C1=O (configuration not stated) | > 30.2 µM | IC50 (Histidine--tRNA ligase): 17.7 µM and 33 µM
Cc1ccc(NS(=O)(=O)c2cnn(-c3ccccc3)c2)c(C(=O)O)c1 | 22.5 µM and 20.5 µM | IC50 (Histidine--tRNA ligase): 38.9 µM and 18.2 µM
Cc1ccc(C)n1-c1ccc(C(=O)NCCNc2ncccn2)cc1 | > 30.2 µM | IC50 (Histidine--tRNA ligase): > 100 µM
Cc1cc(N2CCC(O)CC2)nc(C2CCCN2C)n1 (configuration not stated) | > 30.2 µM | IC50 (Histidine--tRNA ligase): 31 µM and 38.1 µM
O=S(=O)(CCCn1cncn1)Cc1ccc(F)cc1Cl | 4.13 µM and 4.68 µM | IC50 (Histidine--tRNA ligase): 10.5 µM and 17.6 µM
Cn1cc(CNC2CCCOc3c2ccc2ccccc32)cn1 (configuration not stated) | > 30.2 µM | pIC50 (Plasmodium falciparum): 6.02; IC50 (Plasmodium falciparum): 0.871 µM
COc1ccsc1C(=O)Nc1cc(Br)c(=O)n(C)c1 | > 30.2 µM | IC50 (Histidine--tRNA ligase): 19.7 µM and 23.3 µM
Cc1nn(C)c(C)c1CN(C)C(=O)c1cc(NC(=O)C2CC2)n(C)n1 | > 30.2 µM | IC50 [2]: > 50.1 µM
Cc1ccc(C(=O)Nc2c(C(=O)N(C)C)nn(C)c2C)cc1C | > 30.2 µM | IC50 [2]: > 50.1 µM
CC(C)Cc1nc(CO)n(-c2ccc3c(c2)OCCO3)n1 | > 30.2 µM | IC50 (ClpP1P2): > 100 µM
COc1c(Cl)cc(Cl)cc1CN1CCC(C(N)=O)C1 (configuration not stated) | > 30.2 µM | IC50 [3]: > 50.1 µM; IC50 [4]: > 50.1 µM
c1csc(C2(NCc3csc(C4CC4)n3)CCCC2)n1 | > 30.2 µM | IC50 (Histidine--tRNA ligase): 57.3 µM and 56.6 µM
Cc1ccc(CN2C[C@@H]3CCN(Cc4ccncc4)C(=O)[C@H]3C2)s1 | > 30.2 µM | IC50 (ClpP1P2): 34.3 µM
Cc1nccn1-c1cccc(C2CCCN2)n1 (configuration not stated) | > 30.2 µM | IC50 (ClpP1P2): > 100 µM
Cc1c[nH]nc1C1CCN(C(=O)C2CCOCC2)C1 (configuration not stated) | > 30.2 µM | IC50 (Tryptophan--tRNA ligase): > 195 µM
COc1ccc(-c2nc(CCNc3nnc(C)c(C)c3C#N)co2)cc1 | > 30.2 µM | IC50 (Histidine--tRNA ligase): 58.1 µM and 60.7 µM
CC(C)(C)CN1CCN2C(=O)N(C3CCCCC3)C[C@H]2C1 | > 30.2 µM | IC50 [3]: > 50.1 µM; IC50 [4]: > 50.1 µM
Cc1cc(CCC2CN(CC3(O)CCCCC3)CCO2)ncn1 (configuration not stated) | > 30.2 µM | IC50 (Tryptophan--tRNA ligase): > 195 µM
CCn1c(NCc2ccccn2)nc2c(C)nn(C)c2c1=O | > 30.2 µM | pIC50 [2]: < 4.3 and 4.672
COc1ccc(C(O)CN2CC(n3nc(C)cc3C)C2)cc1 (configuration not stated) | > 30.2 µM | pIC50 (Plasmodium falciparum): 5.759; IC50 (Plasmodium falciparum): 1.76 µM
COc1ccc(-n2cc(CNC(=O)c3ccc[nH]3)nn2)cc1 | > 30.2 µM | IC50 (Histidine--tRNA ligase): 33.4 µM and 45.8 µM

Compound | IC50 [1] | other results
CCN(Cc1ccc2cccc(O)c2n1)CC1CCCO1 (configuration not stated) | > 30.2 µM | IC50 (Histidine--tRNA ligase): 18.6 µM and 12.3 µM
O=C(NCc1cccnc1N1CCc2ccccc2C1)c1cc(=O)[nH][nH]1 | > 30.2 µM | IC50 (Histidine--tRNA ligase): 44.8 µM and 45.1 µM
CCN(CC)CCNS(=O)(=O)c1cccc(CSC)c1 | > 30.2 µM | pIC50 (Plasmodium falciparum): 6.161; IC50 (Plasmodium falciparum): 0.551 µM
COc1ccccc1C1CC(=O)Nc2c1c(=O)[nH]n2C1CCCC1 (configuration not stated) | > 30.2 µM | 
CCN1C[C@H]2[C@@H](C1)N(S(=O)(=O)c1cccnc1)CC[C@H]2OC | > 30.2 µM | 
O=S(=O)(NC1CCCCC12OCCO2)c1cc(F)cc(F)c1 (configuration not stated) | > 30.2 µM | 
COc1c(C2SCC(=O)Nc3[nH]ncc32)cc2c(c1OC)OCO2 (configuration not stated) | > 30.2 µM | 
Cc1nnc(CN(Cc2ccc3c(c2)OCO3)C2CCCCC2)o1 | > 30.2 µM | 
CC(Cc1ccco1)NC(=O)CCn1cccn1 (configuration not stated) | > 30.2 µM | 
CCC(NC(=O)c1cc(CC(C)C)nn1C)c1cccc(C)n1 (configuration not stated) | > 30.2 µM | 
c1cncc(CN2CCc3ncnc(C4CCOC4)c3CC2)c1 (configuration not stated) | > 30.2 µM | 
O=C(CCNc1ccccc1)NC1CCN(C(=O)C2CCCCC2)CC1 | > 30.2 µM | 
CCOc1ccc(C(=O)CC(SC2CCCCC2)C(=O)O)cc1 (configuration not stated) | > 50.1 µM | 
Cc1ccc(-c2cc(-c3nc(CN4CCN(C)CC4)no3)[nH]n2)s1 | > 30.2 µM | IC50 (ClpP1P2): > 100 µM
CC(C)C(C)(C#N)NC(=O)Cn1cc(C(N)=O)c(-c2ccccc2)n1 (configuration not stated) | > 30.2 µM | 
Cc1ccc(CNC(=O)COc2ccc3c(c2)OCC3O)cc1 (configuration not stated) | > 30.2 µM | 
Cc1cc(C(=O)N[C@H](C)c2onc(-c3cccnc3)c2C(=O)O)c(C)o1 | > 30.2 µM | 
CCC(=O)NCCc1cc2nc(-c3ccncc3)ccn2n1 | > 30.2 µM | 
Cn1cccc1CN1CCc2ncnc(-c3cccnc3)c2CC1 | > 30.2 µM | 
O=C(C1CC1)N1CCC(c2nc(O)c3c(n2)CCN(C2CCCC2)C3)C1 (configuration not stated) | > 30.2 µM | 
Cc1nc(C2CCCN(C(=O)c3ccc(Cl)cn3)C2)no1 (configuration not stated) | > 30.2 µM | 
CC(C)CC(NC(=O)c1cccs1)c1nc2cccnc2n1C (configuration not stated) | > 30.2 µM | 
Cc1c(C(=O)N2CCN(c3ccccn3)CC2)n(C)c2ccc(Cl)cc12 | > 30.2 µM | 
O=c1n(CC2COCCO2)nc(CC2CCNCC2)n1-c1ccccc1 (configuration not stated) | > 30.2 µM | 

Compound | IC50 [1] | other results
O=C1CC(c2ccc(C(=O)O)cc2)c2c(sc3c2CCCC3)N1 (configuration not stated) | > 50.1 µM | 
CC(=O)Nc1ccc(Oc2cccc(CN3CCCC3)c2)cc1 | > 50.1 µM | 
CC(=O)N1CC(c2ccnc(Nc3nccs3)n2)C1 | > 30.2 µM | 
Fc1ccc(-c2nc(CN3CCCCC3Cn3cncn3)co2)cc1 (configuration not stated) | > 30.2 µM | 
CCc1nccn1CC1CCCN1S(=O)(=O)Cc1ccccc1 (configuration not stated) | > 30.2 µM | 
Cc1nonc1OCCNC(=O)COc1ccc(F)cc1F | > 30.2 µM | 
Cc1nc(-c2cc(C(=O)O)co2)cs1 | > 30.2 µM | 
COc1ccc(-n2c(CCC(=O)O)nc3ccccc32)cc1CO | > 50.1 µM | IC50 (Histidine--tRNA ligase): 68.6 µM and 44 µM
Cc1ccc(-n2c(O)cc(C)c(C#N)c2=O)c(C)c1 | > 30.2 µM | 
Cn1nccc1-c1ccc2nc(C3CCN(CC4CC4)CC3)nn2c1 | > 30.2 µM | 
Cc1nn2cccnc2c1C(=O)N1CCCC(n2ccnc2C)C1 (configuration not stated) | > 30.2 µM | 
Cc1cc(C2CCCN(CCNS(=O)(=O)c3ccccc3)C2)n[nH]1 (configuration not stated) | > 30.2 µM | 
Cc1nccnc1-n1c(COCC(=O)O)nc2c(C)cccc21 | > 50.1 µM | 
Cc1cc(C(F)(F)F)nn1CC(C)C(=O)Nc1ccccn1 (configuration not stated) | > 30.2 µM | 
CN1CCc2nnc(C3CCCN3S(=O)(=O)c3ccc(F)cc3)n2CC1 (configuration not stated) | > 30.2 µM | 
CCN(C)C[C@@H]1CN(C(=O)NC2CCCCC2)C[C@@H]1CO | > 30.2 µM | 
Cc1nn(C)cc1S(=O)(=O)N[C@@H]1CCC[C@@H](N2CCCC2)[C@@H]1O | > 30.2 µM | 
CCc1cnc(CN(C)C2CCN(CCCNS(C)(=O)=O)C2)o1 (configuration not stated) | > 30.2 µM | 
Cc1nn(C)c(C)c1C1CCCN1C(=O)c1cnc2onc(C)c2c1 (configuration not stated) | > 30.2 µM | 
CN(C)CCO[C@@H]1CC[C@H]2[C@H]1OCCN2C(=O)c1ccncc1 | > 30.2 µM | 
COCC1c2nnn(CC3CC3)c2CCN1C(=O)c1cccn1C (configuration not stated) | > 30.2 µM | 
Cc1nc(O)cc(C2(C)CCCNC2)n1 (configuration not stated) | > 30.2 µM | 
CN(C)Cc1cccc(-c2cccnc2C(=O)NCc2cn(C)cn2)c1 | > 30.2 µM | 
